Experimental data reported in PMC12692968, “Design, Synthesis, Molecular Docking, and Anticancer Activity of Chalcone Derivatives as VEGFR-2 Inhibitors” (Molecules, 2025).

Tests used:
[1] = test system: human cervical squamous cell carcinoma cell line SiHa; assay: CCK-8 cytotoxicity assay, SiHa cells; assay type: cell-based; conditions: for IC50: Homo sapiens, SiHa, CCK-8, 48 h incubation, mean ± SD, n = 3
Protocol: (§1) The SiHa, K562, B16 and HK-2 cells were obtained from Wuhan Pricella Biotechnology Co., Ltd. (Wuhan, China). […] 2–5 × 10^3 cells were added to each well of a 96-well plate and incubated for 12 h, followed by the addition of the tested compounds. After incubation for 48 h, 10 μL of the CCK-8 solution was added to each well and incubated for another 2 h. The absorbance of each well was measured at 450 nm using an enzyme-linked immunosorbent assay (ELISA) reader. The experiments were replicated three times. The inhibition rate of cancer cells was calculated using the Formula (1). The half-maximal inhibitory concentration (IC50) value was calculated using GraphPad Prism 8.0 software.

[2] = test system: human chronic myeloid leukemia cell line K562; assay: CCK-8 cytotoxicity assay, K562 cells; assay type: cell-based; conditions: for IC50: CCK-8, 48 h incubation, mean ± SD, n = 3
Protocol: as §1

[3] = test system: mouse melanoma cell line B16; assay: CCK-8 cytotoxicity assay, B16 cells; assay type: cell-based; conditions: for IC50: CCK-8, 48 h incubation, mean ± SD, n = 3
Protocol: as §1

[4] = test system: human renal epithelial cell line HK-2; assay: CCK-8 cytotoxicity assay, HK-2 cells; assay type: cell-based; conditions: Homo sapiens, Epithelial cell; CCK-8, 48 h incubation, mean ± SD, n = 3
Protocol: as §1, with “The cytotoxicity of synthesized compounds against HK-2 cells was also detected. […] The SiHa,” for “The SiHa,”

[5] = molecular target: T1, VEGFR-2 (KDR) protein kinase (Homo sapiens, UniProt P35968); assay: VEGFR-2 (KDR) Kinase Assay Kit enzyme inhibition assay; assay type: biochemical; conditions: Kinase-Glo MAX, 30 °C 45 min, mean ± SD, n = 3
T1 construct: purchased BPS Biosciences, San Diego, CA, USA
T1 sequence (P35968 20-1356): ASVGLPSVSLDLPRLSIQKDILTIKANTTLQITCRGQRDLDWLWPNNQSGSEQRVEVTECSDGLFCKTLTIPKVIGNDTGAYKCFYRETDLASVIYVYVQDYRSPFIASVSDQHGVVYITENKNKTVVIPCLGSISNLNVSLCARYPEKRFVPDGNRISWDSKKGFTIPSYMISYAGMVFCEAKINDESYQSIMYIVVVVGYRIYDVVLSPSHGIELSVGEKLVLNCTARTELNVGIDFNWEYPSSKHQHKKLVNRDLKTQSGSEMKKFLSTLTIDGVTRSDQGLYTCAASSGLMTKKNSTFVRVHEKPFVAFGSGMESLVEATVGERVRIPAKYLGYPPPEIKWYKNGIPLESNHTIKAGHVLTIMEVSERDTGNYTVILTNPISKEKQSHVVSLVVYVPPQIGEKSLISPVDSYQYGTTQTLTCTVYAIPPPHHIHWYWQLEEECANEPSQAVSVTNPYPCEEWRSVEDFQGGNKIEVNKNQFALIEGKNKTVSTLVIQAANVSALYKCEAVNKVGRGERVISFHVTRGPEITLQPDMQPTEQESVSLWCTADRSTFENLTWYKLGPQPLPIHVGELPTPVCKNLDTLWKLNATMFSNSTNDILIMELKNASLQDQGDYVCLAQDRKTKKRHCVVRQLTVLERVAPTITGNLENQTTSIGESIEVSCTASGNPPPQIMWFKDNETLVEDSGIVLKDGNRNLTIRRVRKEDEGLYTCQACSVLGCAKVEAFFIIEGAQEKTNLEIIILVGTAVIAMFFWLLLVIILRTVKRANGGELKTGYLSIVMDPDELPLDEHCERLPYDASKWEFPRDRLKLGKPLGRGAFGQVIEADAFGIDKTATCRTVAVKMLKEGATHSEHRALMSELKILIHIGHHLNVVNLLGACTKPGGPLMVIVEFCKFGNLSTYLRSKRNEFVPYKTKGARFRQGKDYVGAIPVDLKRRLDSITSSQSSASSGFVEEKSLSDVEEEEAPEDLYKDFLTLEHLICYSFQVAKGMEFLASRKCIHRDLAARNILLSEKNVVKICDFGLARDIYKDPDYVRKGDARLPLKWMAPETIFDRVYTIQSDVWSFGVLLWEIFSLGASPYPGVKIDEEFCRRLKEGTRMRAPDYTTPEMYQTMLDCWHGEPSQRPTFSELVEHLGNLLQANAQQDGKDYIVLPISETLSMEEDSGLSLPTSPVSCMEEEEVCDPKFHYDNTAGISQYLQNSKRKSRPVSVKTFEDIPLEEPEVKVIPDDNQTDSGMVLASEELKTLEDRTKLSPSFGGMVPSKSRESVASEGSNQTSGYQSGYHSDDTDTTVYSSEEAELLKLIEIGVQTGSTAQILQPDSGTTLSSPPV
Protocol: Many studies have shown that abnormal VEGFR-2 signaling could induce proliferation of cervical squamous cell carcinoma cells, myeloid leukemia cancer cells, and melanoma cells. […] A VEGFR-2 (KDR) Kinase Assay Kit (BPS Biosciences, San Diego, CA, USA) was used to conduct a VEGFR-2 inhibition assay following the manufacturer’s protocol. Briefly, kinase buffer and ATP and PTK substrate (Poly-Glu,Tyr 4:1) were diluted with distilled water to prepare a master mix solution. The master mix solution, test sample, and VEGFR-2 (KDR) protein kinase (2 ng/μL) were added to a 96-well plate and incubated at 30 °C for 45 min. After incubation, Kinase-Glo™ MAX (BPS Biosciences) reagent was added to each well, and incubated for 15 min at room temperature. Then it was immediately detected with an ELISA reader. The experiments were replicated three times.

| Structure (SMILES) | IC50 [1] | IC50 ([2]; Homo sapiens, K562, 48 h) | IC50 ([3]; Mus musculus, B16, 48 h) | IC50 [4] | IC50 [5] | IC50 ([1]; 48 h) | IC50 [2] | IC50 [3] | fold increase in cytotoxicity compared to unsubstituted compound 2a, SiHa ([1]; ratio of IC50 values vs 2a) | fold increase in cytotoxicity compared to unsubstituted compound 2a, K562 ([2]; ratio of IC50 values vs 2a) | fold increase in cytotoxicity compared to unsubstituted compound 2a, B16 ([3]; ratio of IC50 values vs 2a) |
| --- | --- | --- | --- | --- | --- | --- | --- | --- | --- | --- | --- |
| COc1ccc(/C=C/C(=O)c2ccc(NC(=O)Nc3ccc(Cl)c(C(F)(F)F)c3)cc2)cc1O [Compound 2o, (E)-1-(4-chloro-3-(trifluoromethyl)phenyl)-3-(4-(3-(3-hydroxy-4-methoxyphenyl)acryloyl)phenyl)urea] | 1.22 ± 0.07 µM | 1510 ± 160 nM | 3.06 ± 0.22 µM | 19.1 ± 1.05 µM | 310 ± 20 nM |  |  |  |  |  |  |
| CCc1ccc(/C=C/C(=O)c2ccc(NC(=O)Nc3ccc(Cl)c(C(F)(F)F)c3)cc2)cc1 [Compound 2i, (E)-1-(4-chloro-3-(trifluoromethyl)phenyl)-3-(4-(3-(4-ethylphenyl)acryloyl)phenyl)urea] | 7.96 ± 0.26 µM | 4450 ± 530 nM | 8.66 ± 0.58 µM |  |  |  |  |  |  |  |  |
| O=C(Nc1ccc(C(=O)/C=C/c2cccs2)cc1)Nc1ccc(Cl)c(C(F)(F)F)c1 [Compound 2n, (E)-1-(4-chloro-3-(trifluoromethyl)phenyl)-3-(4-(3-(thiophen-2-yl)acryloyl)phenyl)urea] |  | 15200 ± 1200 nM |  |  | 2200 ± 100 nM | > 20 µM |  |  |  |  |  |
| COc1cc(/C=C/C(=O)c2ccc(NC(=O)Nc3ccc(Cl)c(C(F)(F)F)c3)cc2)cc(OC)c1O [Compound 2r, (E)-1-(4-chloro-3-(trifluoromethyl)phenyl)-3-(4-(3-(4-hydroxy-3,5-dimethoxyphenyl)acryloyl)phenyl)urea] | 2.22 ± 0.1 µM | 970 ± 60 nM | 2.93 ± 0.29 µM | 11.3 ± 0.66 µM |  |  |  |  |  |  |  |
| COc1ccc(/C=C/C(=O)c2ccc(NC(=O)Nc3ccc(Cl)c(C(F)(F)F)c3)cc2)cc1 [Compound 2b, (E)-1-(4-chloro-3-(trifluoromethyl)phenyl)-3-(4-(3-(4-methoxyphenyl)acryloyl)phenyl)urea] | 5.55 ± 0.26 µM | 5080 ± 310 nM | 8.32 ± 0.61 µM |  |  |  |  |  |  |  |  |
| COc1cc(/C=C/C(=O)c2ccc(NC(=O)Nc3ccc(Cl)c(C(F)(F)F)c3)cc2)cc(OC)c1 [Compound 2h, (E)-1-(4-chloro-3-(trifluoromethyl)phenyl)-3-(4-(3-(3,5-dimethoxyphenyl)acryloyl)phenyl)urea] | 2.99 ± 0.27 µM | 1620 to 2020 nM | 1.62 to 2.02 µM | 9.87 ± 0.89 µM |  |  | 2020 ± 120 nM | 1.62 ± 0.14 µM |  |  |  |
| COc1ccc(/C=C/C(=O)c2ccc(NC(=O)Nc3ccc(Cl)c(C(F)(F)F)c3)cc2)c(OC)c1OC [Compound 2j, (E)-1-(4-chloro-3-(trifluoromethyl)phenyl)-3-(4-(3-(2,3,4-trimethoxyphenyl)acryloyl)phenyl)urea] | 6.62 ± 0.28 µM | 2400 ± 220 nM | 9.73 ± 0.98 µM |  |  |  |  |  |  |  |  |
| O=C(Nc1ccc(C(=O)/C=C/c2ccc(Cl)cc2)cc1)Nc1ccc(Cl)c(C(F)(F)F)c1 [Compound 2d, (E)-1-(4-chloro-3-(trifluoromethyl)phenyl)-3-(4-(3-(4-chlorophenyl)acryloyl)phenyl)urea] | 4.78 ± 0.14 µM | 8410 ± 570 nM | 12.8 ± 0.84 µM |  |  |  |  |  |  |  |  |
| O=C(Nc1ccc(C(=O)/C=C/c2ccc(O)cc2)cc1)Nc1ccc(Cl)c(C(F)(F)F)c1 [Compound 2s, (E)-1-(4-chloro-3-(trifluoromethyl)phenyl)-3-(4-(3-(4-hydroxyphenyl)acryloyl)phenyl)urea] | 8.96 ± 0.03 µM | 6470 ± 360 nM | 4.29 ± 0.52 µM |  |  |  |  |  |  |  |  |
| COc1cc(/C=C/C(=O)c2ccc(NC(=O)Nc3ccc(Cl)c(C(F)(F)F)c3)cc2)ccc1O [Compound 2p, (E)-1-(4-chloro-3-(trifluoromethyl)phenyl)-3-(4-(3-(4-hydroxy-3-methoxyphenyl)acryloyl)phenyl)urea] | 4.25 ± 0.14 µM | 3420 ± 180 nM | 4.37 ± 0.28 µM | 13.9 ± 0.58 µM |  |  |  |  |  |  |  |
| O=C(Nc1ccc(C(=O)/C=C/c2ccc(O)c(O)c2)cc1)Nc1ccc(Cl)c(C(F)(F)F)c1 [Compound 2q, (E)-1-(4-chloro-3-(trifluoromethyl)phenyl)-3-(4-(3-(3,4-dihydroxyphenyl)acryloyl)phenyl)urea] | 2.53 ± 0.09 µM | 1120 ± 100 nM | 4.49 ± 0.24 µM | 24.3 ± 1.71 µM | 550 ± 40 nM |  |  |  |  |  |  |
| Cc1ccc(/C=C/C(=O)c2ccc(NC(=O)Nc3ccc(Cl)c(C(F)(F)F)c3)cc2)cc1 [Compound 2g, (E)-1-(4-chloro-3-(trifluoromethyl)phenyl)-3-(4-(3-(p-tolyl)acryloyl)phenyl)urea] | 6.03 ± 0.38 µM | 4190 ± 260 nM | 7.15 ± 0.49 µM |  |  |  |  |  |  |  |  |
| COc1cc(/C=C/C(=O)c2ccc(NC(=O)Nc3ccc(Cl)c(C(F)(F)F)c3)cc2)cc(OC)c1OC [Compound 2f, (E)-1-(4-chloro-3-(trifluoromethyl)phenyl)-3-(4-(3-(3,4,5-trimethoxyphenyl)acryloyl)phenyl)urea] | 4.89 ± 0.21 µM | 1620 to 2020 nM | 1.62 to 2.02 µM | 5.85 ± 0.36 µM | 390 ± 20 nM |  | 1680 ± 90 nM | 1.65 ± 0.29 µM |  |  |  |
| O=C(Nc1ccc(C(=O)/C=C/c2cccc(Cl)c2)cc1)Nc1ccc(Cl)c(C(F)(F)F)c1 [Compound 2e, (E)-1-(4-chloro-3-(trifluoromethyl)phenyl)-3-(4-(3-(3-chlorophenyl)acryloyl)phenyl)urea] | 4.71 ± 0.29 µM | 2910 ± 170 nM | 11.3 ± 0.64 µM |  |  |  |  |  |  |  |  |
| O=C(Nc1ccc(C(=O)C=Cc2ccccc2)cc1)Nc1ccc(Cl)c(C(F)(F)F)c1 [Compound 2a, 1-(4-chloro-3-(trifluoromethyl)phenyl)-3-(4-cinnamoylphenyl)urea] | 4.43 ± 0.16 µM | 12600 ± 450 nM | 10.7 ± 0.78 µM |  |  |  |  |  |  |  |  |
| O=C(Nc1ccc(C(=O)/C=C/c2ccc(F)cc2)cc1)Nc1ccc(Cl)c(C(F)(F)F)c1 [Compound 2c, (E)-1-(4-chloro-3-(trifluoromethyl)phenyl)-3-(4-(3-(4-fluorophenyl)acryloyl)phenyl)urea] | 1.03 ± 0.02 µM | 2050 ± 130 nM | 5.02 ± 0.18 µM | 15.7 ± 1.22 µM | 680 ± 30 nM |  |  |  | 4.3 fold | 6.2 fold | 2.1 fold |
| Cc1ccc(/C=C/C(=O)c2ccc(NC(=O)Nc3ccc(Cl)c(C(F)(F)F)c3)cc2)cc1C [Compound 2k, (E)-1-(4-chloro-3-(trifluoromethyl)phenyl)-3-(4-(3-(3,4-dimethylphenyl)acryloyl)phenyl)urea] | 8.35 ± 0.09 µM | 1730 ± 230 nM | 6.42 ± 0.54 µM |  |  |  |  |  |  |  |  |
| O=C(Nc1ccc(C(=O)/C=C/c2ccco2)cc1)Nc1ccc(Cl)c(C(F)(F)F)c1 [Compound 2m, (E)-1-(4-chloro-3-(trifluoromethyl)phenyl)-3-(4-(3-(furan-2-yl)acryloyl)phenyl)urea] | 6.53 ± 0.24 µM | 8950 ± 760 nM |  |  |  |  |  |  |  |  |  |
